Measurements: patent publication US5760241A, “Thiol derivatives with metallopeptidase inhibitory activity” (priority 1996, dated 1998)
Structures can show the parent of a compound that is named as a salt.

How the values were obtained:
[1] = target: T1, NEP (membranes from rat kidney cortex) (Rattus norvegicus, UniProt P07861); experiment: In vitro NEP-inhibitory activity in rat kidney cortex membranes ([3H][Leu5]-enkephaline substrate); format: biochemical, male Sprague-Dawley rats; conditions: for IC50: 20 minutes at 30° C., [3H][Leu5]-enkephaline 15 nM
T1 construct: from tissue; host or cells: kidney cortex membranes of male Sprague-Dawley rats
T1 sequence (P07861 1-750): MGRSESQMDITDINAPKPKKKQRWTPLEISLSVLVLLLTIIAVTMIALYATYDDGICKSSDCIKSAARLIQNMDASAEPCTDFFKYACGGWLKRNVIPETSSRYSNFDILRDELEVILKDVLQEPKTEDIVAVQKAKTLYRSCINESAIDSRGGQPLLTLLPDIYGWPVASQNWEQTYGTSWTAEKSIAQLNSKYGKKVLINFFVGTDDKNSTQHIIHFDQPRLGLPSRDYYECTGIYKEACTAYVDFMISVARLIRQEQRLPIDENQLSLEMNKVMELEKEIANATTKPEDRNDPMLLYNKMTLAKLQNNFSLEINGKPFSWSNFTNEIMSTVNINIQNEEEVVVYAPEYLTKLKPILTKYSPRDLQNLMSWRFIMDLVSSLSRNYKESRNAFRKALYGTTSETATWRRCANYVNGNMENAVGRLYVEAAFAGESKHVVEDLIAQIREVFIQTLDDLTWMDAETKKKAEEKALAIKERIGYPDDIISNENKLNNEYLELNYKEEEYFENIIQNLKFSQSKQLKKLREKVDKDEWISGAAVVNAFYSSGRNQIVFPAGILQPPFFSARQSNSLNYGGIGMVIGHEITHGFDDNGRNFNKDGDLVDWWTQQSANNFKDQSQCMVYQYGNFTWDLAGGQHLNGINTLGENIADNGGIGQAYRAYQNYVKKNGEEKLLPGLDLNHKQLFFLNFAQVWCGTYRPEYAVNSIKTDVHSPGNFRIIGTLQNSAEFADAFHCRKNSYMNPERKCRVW
Method: a) NEP-inhibitory activity
The NEP-inhibitory activity was evaluated in membranes from rat kidney cortex prepared according to the procedure described by T. Maeda et al. in Biochim. Biophys. Acta 1983, 731(1), 115-120.
By working at 0°-4° C., kidneys were removed from male Sprague-Dawley rats weighing approximately 300 g.
Cortex was carefully dissected, finely minced and suspended in a homogenization buffer (10 mM sodium phosphate pH 7.4 containing 1 mM MgCl2, 30 mM NaCl, 0.02% NaN3) 1:15 weight/volume.
The tissue was then homogenized for 30 seconds using an Ultra-Turrax homogenizer.
Approximately 10 ml of homogenate were layered over 10 ml of sucrose (41% weight/volume) and centrifuged at 31200 rpm for 30 minutes at 4° C. in a fixed angle rotor. The membranes were collected from the buffer/sucrose interface, washed twice with 50 mM TRIS/HCl buffer (pH 7.4) and resuspended into the same buffer for storage.
The membranes were stored in small aliquots at -80° C. until use.
The NEP-inhibitory activity was evaluated according to the method described by C. Llorens et al., in Eur. J. Pharmacol., 69, (1981), 113-116, as reported hereinafter.
Aliquots of the membrane suspension prepared as above described (concentration 5 μg/ml of proteins) were preincubated in the presence of an aminopeptidase inhibitory (Bestatin--1 mM) for 10 minutes at 30° C.
[^3 H][Leu^5 ]-enkephaline (15 nM) and buffer TRIS/HCl pH 7.4 (50 mM) were added in order to obtain a final volume of 100 μl.
Incubation (20 minutes at 30° C.) was stopped by adding HCl 0.1M (100 μl).
The formation of the metabolite [^3 H]Tyr-Gly-Gly was quantified by chromatography on polystyrene columns (Porapak Q).

ACE/NEP = experiment: Ex vivo mixed/dual ACE/NEP-inhibitory activity (lung and kidney of SHR taken together); format: in vivo, spontaneously hypertensive rats (SHR); conditions: intravenous or oral
Method: The ex vivo ACE/NEP-inhibitory activity of the compounds of formula I, in particular, was evaluated by considering the enzymatic activity in tissue homogenates (lung and kidney for the ACE- and NEP-inhibitory activity, respectively) from spontaneously hypertensive rats (SHR), treated with the tested compounds by intravenous or oral route.
The inhibitory activity of the compounds of formula I was evaluated in kidneys of spontaneously hypertensive rats (SHR), 5 minutes after i.v. injection (0.6, 0.64 and 21 μmoles/kg) and 30 minutes, 60 minutes and 4 hours after oral administration (30 μmoles/kg) of the tested compounds.
The inhibitory activity of the compounds of formula I was evaluated in lungs of spontaneously hypertensive rats (SHR), 5 minutes after i.v. injection (0.6, 0.64 and 21 μmoles/kg) and 30 minutes, 60 minutes and 4 hours after oral administration (30 μmoles/kg) of the tested compounds.
As an example, the percentages of basal enzymatic activity obtained in the ex vivo tests after the administration of compounds 29 and 41, as representative compounds of formula I, and of the comparison compounds R-1, R-2, R-3 and R-4 are reported in the following table 2.

[2] = target: T2, ACE (purified by lung rabbit, EC 3.4.15.1) (Oryctolagus cuniculus, UniProt P12822); experiment: In vitro ACE-inhibitory activity (FAPGG substrate, spectrophotometric); format: biochemical; conditions: 37° C.; FAPGG 0.8 mM
T2 construct: purchased SIGMA; host or cells: rabbit lung
T2 sequence (P12822 34-1310): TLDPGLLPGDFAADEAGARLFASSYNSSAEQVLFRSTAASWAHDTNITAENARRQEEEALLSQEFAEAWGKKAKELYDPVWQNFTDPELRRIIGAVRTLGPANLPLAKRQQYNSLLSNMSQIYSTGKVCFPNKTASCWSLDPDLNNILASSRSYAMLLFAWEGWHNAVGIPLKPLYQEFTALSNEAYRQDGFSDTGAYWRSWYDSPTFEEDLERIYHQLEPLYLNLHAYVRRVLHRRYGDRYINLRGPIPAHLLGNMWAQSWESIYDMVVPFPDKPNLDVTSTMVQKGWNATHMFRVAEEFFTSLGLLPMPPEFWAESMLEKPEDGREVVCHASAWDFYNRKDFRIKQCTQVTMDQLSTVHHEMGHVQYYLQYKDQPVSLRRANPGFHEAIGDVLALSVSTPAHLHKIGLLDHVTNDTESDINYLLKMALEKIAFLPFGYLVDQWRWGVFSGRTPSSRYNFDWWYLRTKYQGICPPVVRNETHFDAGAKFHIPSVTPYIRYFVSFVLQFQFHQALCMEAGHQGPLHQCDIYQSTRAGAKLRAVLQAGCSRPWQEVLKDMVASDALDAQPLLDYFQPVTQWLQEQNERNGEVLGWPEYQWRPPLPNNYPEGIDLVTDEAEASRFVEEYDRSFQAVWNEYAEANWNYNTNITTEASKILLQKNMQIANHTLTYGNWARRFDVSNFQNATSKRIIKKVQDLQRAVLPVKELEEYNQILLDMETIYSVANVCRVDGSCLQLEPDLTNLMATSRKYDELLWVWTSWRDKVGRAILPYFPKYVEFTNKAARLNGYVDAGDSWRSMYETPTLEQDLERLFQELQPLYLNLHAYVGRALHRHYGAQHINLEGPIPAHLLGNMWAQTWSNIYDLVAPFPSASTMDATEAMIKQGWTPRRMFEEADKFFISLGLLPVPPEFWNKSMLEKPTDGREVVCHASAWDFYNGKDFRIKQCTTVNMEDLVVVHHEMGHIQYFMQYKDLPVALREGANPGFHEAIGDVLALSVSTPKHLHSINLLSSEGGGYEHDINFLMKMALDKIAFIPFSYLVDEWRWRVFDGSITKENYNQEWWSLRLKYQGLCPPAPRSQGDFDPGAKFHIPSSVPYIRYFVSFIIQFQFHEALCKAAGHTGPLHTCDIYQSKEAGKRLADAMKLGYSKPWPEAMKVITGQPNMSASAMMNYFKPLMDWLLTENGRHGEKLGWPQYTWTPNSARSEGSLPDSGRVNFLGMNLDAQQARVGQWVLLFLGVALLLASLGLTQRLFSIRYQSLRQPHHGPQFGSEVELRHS
Method: b) ACE-inhibitory activity
The ACE-inhibitory activity was evaluated according to the method reported in the literature by B. Holmquist et al., in Analytical Biochemistry 95, 540-548 (1979).
[…] of ACE (250 mU/ml purified by lung rabbit, EC 3.4.15.1 SIGMA) were preincubated with 50 μl of the compound of formula I or of the comparison compound in thermostated cuvettes at 37° C.
The reaction was started by adding furylacryloylphenylalanylglycylglycine 0.8 mM (FAPGG-SIGMA).
Contemporaneously, by using a Beckman DU-50 spectrophotometer provided with a program for calculating delta A/minutes and regression coefficients of the enzyme kinetics curves, the absorbance at 340 nm was recorded in continuo for 5 minutes.
The percentage of the enzyme inhibition in the preparations treated with the compounds of formula I or with the comparative compounds with respect to the untreated preparations was expressed as IC50 (nM) value.

| IC50 [1] | IC50 [2] | inhibition at 0.1 µM ([1]; read-out: NEP-inhibitory activity % inhibition (10^-7 M), concentration 10^-7 M) | NEP-inhibitory activity % inhibition (10^-7 M) ([1]; concentration 10^-7 M) | Structure (SMILES) | ex-vivo mixed/dual ACE/NEP-inhibitory activity, in words (ACE/NEP) |
| --- | --- | --- | --- | --- | --- |
| 24 nM | 5 nM | – | – | CC(c1ccccc1)C(CS)C(=O)N[C@@H](C)C(=O)O (stereo partly drawn) [RB 105, N-[2-(mercaptomethyl)-3-phenylbutanoyl]-L-alanine, reference compound] | not confirmed by ex-vivo tests |
| 6.1 nM | 25.3 nM | – | – | O=C(N[C@@H](Cc1ccc(-c2ccccc2)cc1)C(=O)O)[C@H](CS)Cc1ccccc1 [compound 47, N-[(2R)-2-mercaptomethyl-3-phenylpropionyl]-(1,1'-biphenyl-4-yl)-L-alanine] | – |
| 13 nM | 2 nM | – | – | O=C(N[C@@H](Cc1ccc(-c2ccccc2)cc1)C(=O)O)C(CS)Cc1cccnc1 (single isomer, unassigned) [compound 51, N-[2-mercaptomethyl-3-(3-pyridyl)propionyl]-(1,1'-biphenyl-4-yl)-L-alanine hydrochloride] | – |
| – | 13 nM | 94% | – | Cc1cc(CC(CS)C(=O)N[C@@H](Cc2ccc(-c3ccccc3)cc2)C(=O)O)on1 (single isomer, unassigned) [compound 53, N-[2-mercaptomethyl-3-(3-methyl-5-isoxazolyl)propionyl]-(1,1'-biphenyl-4-yl)-L-alanine] | – |
| 1.8 nM | 2.6 nM | – | – | O=C(N[C@@H](Cc1ccc(-c2ccccc2)cc1)C(=O)O)[C@@H](CS)Cc1ccccc1 [compound 46, N-[(2S)-2-mercaptomethyl-3-phenylpropionyl]-(1,1'-biphenyl-4-yl)-L-alanine] | – |
| 1.2 nM | 3.8 nM | – | – | CC(C)C(CS)C(=O)N[C@@H](Cc1ccc(-c2ccccc2)cc1)C(=O)O (stereo partly drawn) [compound 49, N-(2-isopropyl-3-mercaptopropionyl)-(1,1'-biphenyl-4-yl)-L-alanine] | – |
| 2.9 nM | 13 nM | – | – | O=C(N[C@@H](Cc1ccc(-c2ccccc2)cc1)C(=O)O)C(CS)Cc1cccnc1 (single isomer, unassigned) [compound 50, N-[2-mercaptomethyl-3-(3-pyridyl)propionyl]-(1,1'-biphenyl-4-yl)-L-alanine hydrochloride] | – |
| – | 11 nM | – | 76% | Cc1cc(CC(CS)C(=O)N[C@@H](Cc2ccc(-c3ccccc3)cc2)C(=O)O)on1 (single isomer, unassigned) [compound 54, N-[2-mercaptomethyl-3-(3-methyl-5-isoxazolyl)propionyl]-(1,1'-biphenyl-4-yl)-L-alanine] | – |
| 3.7 nM | 6 nM | – | – | O=C(N[C@@H](Cc1ccc(-c2ccccc2)cc1)C(=O)O)C(CS)Cc1ccco1 (stereo partly drawn) [compound 52, N-[3-(2-furyl)-2-(mercaptomethyl)propionyl]-(1,1'-biphenyl-4-yl)-L-alanine] | – |
| 16 nM | 7.5 nM | – | – | COc1cccc(CC(CS)C(=O)N[C@@H](Cc2ccc(-c3ccccc3)cc2)C(=O)O)c1 (single isomer, unassigned) [compound 42, N-[2-mercaptomethyl-3-(3-methoxyphenyl)propionyl]-(1,1'-biphenyl-4-yl)-L-alanine] | – |
